Experimental data as given in patent US20260217671A1, “COMPOUND FOR PREVENTING AND/OR TREATING NEURODEGENERATIVE DISEASE” (TYK MEDICINES, INC., priority 2023, published 2026).

Tests used:
[1] = Pharmacokinetic experiment (gavage, plasma); type: in vivo; conditions: rat, gavage (p.o.) 10 mg/kg; for AUC(0-t) / Cmax / Tmax: po
Experimental: Test Example 1 Pharmacokinetic Experiment
Accurately weighed approximately 10 mg of the test sample, dissolved in DMSO to a total volume of 10%, then slowly added 0.5% MC solvent to a total volume of 90% while stirring, sonicated, vortexed, and obtained a solution of visually homogeneous formulation with a concentration of 1 mg/mL; freshly prepared before use.
Pipetted 0.2 mL of the sample into a 1.5 mL centrifuge tube and stored at −80° C. for use in the concentration analysis of the drug solution.
The animals were housed in rat cages and fasted for at least 10 hours prior to the experiment, but had access to water. On the day of the experiment, the animals were weighed and marked on the tail. Blank blood samples were collected prior to drug administration. Blood was collected from the tail vein.
• Route of administration: gavage (p.o.) • Dosage concentration: 1 mg/ml • Dosage: 10 mg/kg • Volume: 10 mL/kg • Procedure: Caught the rat with left hand wearing bite-resistant gloves, hold it upright, inserted the gavage needle into its mouth and throat, and injected the drug into its stomach after confirming that there was no obvious resistance.
Test animals were sampled at 0.5 h, 1 h, 2 h, 4 h, 6 h, 8 h, 12 h, and 24 h post-administration, collected 0.1-0.2 ml of whole blood into EDTA-Na2 anticoagulant tubes, inverted the tubes 3-4 times to mix thoroughly, and centrifuged at 4° C. and 2000 g for 5 minutes to separate the upper layer of plasma. The plasma was promptly transferred to −80° C. for storage and analysis. Blood collection was performed via the tail vein.
(§1) 5. Sample Analysis and Data Processing
(§2) A quantitative detection method for the target compounds was established using Shimadzu liquid chromatography and Triple Quad TM 6500+AB mass spectrometry. The concentration of the parent drug in plasma was analyzed. The analysis results were controlled for variability using quality control samples, and the accuracy of the quality control samples should be between 80% and 120%.
The non-compartmental model in the winnonlin Phoenix software was used to calculate the main pharmacokinetic parameters. These included the area under the pharmacokinetic curve (AUC(0-t) and AUC(0-∞)), elimination half-life (T1/2), maximum plasma concentration (Cmax), and time to reach maximum plasma concentration (Tmax).

[2] = system: brain slices containing the hippocampus (CA3 stimulation, CA1 recording); experiment: Electrophysiological LTP recording (fEPSP in hippocampal brain slices); type: cell-based, C57BL/6J mice; conditions: for activation effects on LTP (in words): same detection method as Table 5
Experimental: Test Example 3 Electrophysiological LTP Recording
3.1 Preparation of Brain Slices:
C57BL/6J mice aged 6-8 weeks was taken and anesthetized, then quickly decapitated. The scalp was cut open, and removed the skull and dura mater. Quickly removed the whole brain and placed it in 0-4° C. artificial cerebrospinal fluid (ACSF) saturated with 95% O2 and 5% CO2 to cool it slightly. Resected the cerebellum and one-third of the forebrain, divided the brain into two halves along the midline, and dissected the hippocampus along the cortical margin from the medial side of the brain. The brain tissue containing the hippocampus was fixed on a slide dish with glue, and cut into 400-micron-thick brain slices in the coronal plane by a vibrating microtome. The brain slices were then placed in an incubation chamber on a nylon mesh submerged beneath the liquid surface, continuously supplied with a mixed gas, and incubated at 34° C. in a water bath for 0.5 h. The slices were then transferred to room temperature (26±1° C.) for further incubation until ready for use, with the experiment commencing 2-3 hours later.
3.2 In vitro brain slice potential recording:
Under direct visualization with a surgical microscope, a bipolar metal tungsten wire stimulation electrode with exposed tip was placed on the Schaffer collateral pathway of the CA3 region. The stimulation electrode was connected to the stimulator via an isolator, and the recording electrode was connected to a […] via a microelectrode amplifier, and then connected to data acquisition software.
3.3 Electrophysiological recording:
Before recording field excitatory postsynaptic potentials (fEPSPs), the brain slice was transferred to a recording chamber, and continuously perfused the cerebrospinal fluid in a water bath with a mixture of gases (95% 02, 5% CO2). The stimulation electrode was inserted into the CA3 region of the hippocampus, and the recording electrode was inserted into the CA1 region of the hippocampus. When approaching the target location, the insertion depth of the stimulation electrode and recording electrode was slowly and precisely adjusted. At the same time, a pulse with a width of 1 ms was applied every 10-20 s, and the stimulus intensity was adjusted until the optimal fEPSP was achieved. Then the electrode position was fixed, and a stimulus intensity achieving 30-40% of the maximum response elicited at the optimal fEPSP was set as a stimulus intensity to record a baseline of fEPSP. The recording was continued for 20-30 min to establish a stable baseline value. Subsequently, perfusion administration was performed (initial exploratory dose of 30 μM), with the administration duration ranging from 20-30 minutes (depending on the drug's efficacy). If the drug enhanced or reduced fEPSP, normal ACSF was used for elution for 40-60 minutes to observe whether the enhanced effect could be sustained over the long term: if there was no significant change in fEPSP, the experiment was terminated. […] Experimental data and images were processed using Clampfit software.
4. Data Statistics and Analysis:
All experimental data were expressed as mean±standard error (Mean f SEM). All statistical analyses were performed using one-way ANOVA. Significant differences were indicated as follows: *p≤0.05, **p≤0.01, ***p≤0.001. p>0.05 indicated no significant difference.

[3] = Brain-penetrating pharmacokinetic study (plasma, brain tissue); type: in vivo, Sprague-Dawley (SD) rat; conditions: SD rat, gavage (p.o.) 10 mg/kg single dose; for Kp: Sprague-Dawley, brain/plasma, po, read-out: Ratio of total drug in Brain tissue/plasma(B/P)
Source text: Test Example 2 Brain-Penetrating Pharmacokinetic Study
Solvent for Administration: 5% DMSO+10% Solutol HS15+85% physiological saline
Formulation preparation process: weighed an appropriate amount of powder, added an appropriate volume of DMSO, vortexed, then added an appropriate volume of Solutol solution, vortexed, and finally added an appropriate amount of physiological saline, vortexed and sonicated to obtain a homogeneous, clear formulation solution.
Two samples of the formulation were retained before administration, and the remaining formulation after administration was stored at 2-8° C. for shipment.
Laboratory animals were housed in the animal facility of Suzhou Xihua New Drug Development Co., Ltd. (license number: SYXK(Su)2021-0019). The animal facility was equipped with an air conditioning system and had good ventilation. The indoor temperature was maintained 20° C.-26° C., and the humidity was maintained 40%-70%4. Artificial lighting was used in the animal rooms, with 12 hours of light and 12 hours of darkness (except when work lighting was required for experimental operations and cleaning). The experimental animals were allowed to eat and drink water freely.
After purchase, the animals were fed normally for at least 3 days. […] Each rat was marked with a tail tag. Animals in the oral administration group were fasted overnight on the day before administration and resumed feeding 4 hours after administration, and free access to water.
• Route of administration: gavage (p.o.) • Concentration: 1 mg/ml • Dose: 10 mg/kg • Volume: 10 mL/kg • Frequency: Single dose
Before administration, checked the condition of the drug formulation and ensured its uniformity by swirling, stirring, or shaking. Calculated the theoretical dosage volume for each SD rat in each group using the following formula.
4. Sample Collection and Processing
Samples were collected from experimental rats at 0.5 h, 1 h, 2 h, 4 h, 6 h, 8 h, and 24 h after administration.
Plasma: At each time point, 0.15 mL of whole blood was collected via the jugular vein and placed in a tube containing anticoagulant (3 μL of 15% EDTA-K2 solution). The tubes were stored on wet ice and centrifuged within 1 hour (2,000 g, 2-8° C., for 10 minutes) to obtain plasma. The plasma was stored in pre-chilled centrifuge tubes, rapidly frozen in dry ice, and then stored at −60° C. or lower in an ultra-low temperature freezer until LC-MS/MS analysis.
Cerebrospinal fluid: the rats was euthanized using the carbon dioxide method. ~50 μL of cerebrospinal fluid was collected using a puncture method, 1 mL syringe was used with the needle bevel facing upward and the needle tip nearly horizontal to puncture the subarachnoid space, secured the needle and slowly withdrew the cerebrospinal fluid. The sample was stored in dry ice within 30 minutes after collection, then transferred it to a −90~−60° C. environment.
Brain tissue: A cardiac perfusion was performed first, followed by brain tissue extraction. Under deep terminal anesthesia, approximately 8 milliliters of physiological saline were used for cardiac perfusion to flush the remaining blood from the brain tissue out of the circulation. After extraction, the brain tissue was gently washed once with frozen physiological saline, blotted up the water, weighed, and then transferred to a storage environment at −90~−60° C. for cryopreservation.
as §1
as §2, with “the sample” for “plasma”
Winnonlin Phoenix 8.1.0.3530 was used to calculate pharmacokinetic parameters: Tmax, Cmax, AUC(0-t), AUC(0-∞), Tu2, MRT(0-∞), etc. […]

Row | Compound | AUC(0-t) [1] [ng·h/mL] | Cmax [1] [ng/mL] | Tmax [1] [min] | activation effects on LTP (in words) [2] | further results
1 | O=C1C=C(OCc2ccc(F)cc2)[C@H](Cc2ccccc2)N1 [Compound 50561, reference compound] | 2500 | 838 | 79.8 |  | 
2 | C[C@H](c1ccccn1)[C@@H]1NC(=O)C=C1OCc1ccc(F)cc1 [Compound T-73] |  |  |  | excellent activation effects on LTP | 
3 | C[C@@H](c1ncccc1F)[C@@H]1NC(=O)C=C1OCc1ccc(F)cc1 [Compound T-76] |  |  |  | excellent activation effects on LTP | 
4 | C[C@@H](OC1=CC(=O)N[C@H]1Cc1ccccn1)c1ccc(F)cc1 [Compound T-51] | 5700 | 2970 | 15 | excellent activation effects on LTP | pharmacokinetic properties (in words) [1]: excellent pharmacokinetic properties
5 | C[C@@H](c1ccccc1)[C@@H]1NC(=O)C=C1OCc1ccc(F)cc1 [Compound T-95] | 5800 | 1030 | 49.8 |  | pharmacokinetic properties (in words) [1]: excellent pharmacokinetic properties
6 | [2H]C([2H])(OC1=CC(=O)N[C@H]1Cc1ccccc1)c1ccc(F)cc1 [Compound T-45] | 3410 | 1880 | 30 |  | 
7 | C[C@@H](c1ccccn1)[C@@H]1NC(=O)C=C1OCc1ccc(F)cc1 [Compound T-74] |  |  |  | excellent activation effects on LTP | 
8 | C[C@H](c1ncccc1F)[C@@H]1NC(=O)C=C1O[C@H](C)c1ccc(F)cc1 [Compound T-99] |  |  |  | excellent activation effects on LTP | 
9 | C[C@H](c1ccccn1)[C@@H]1NC(=O)C=C1O[C@H](C)c1ccc(F)cc1 [Compound T-79] |  |  |  | excellent activation effects on LTP | 
10 | C[C@@H](OC1=CC(=O)N[C@H]1Cc1ccccc1)c1ccc(F)cc1 [Compound T-47] | 6730 | 1890 | 90 | excellent activation effects on LTP | Total drug exposure (AUC) in brain tissue ([3]; brain tissue): 11452 ng·h/mL; Total drug exposure (AUC) in brain tissue ([3]; plasma): 5529 ng·h/mL; Kp [3]: 2.07; pharmacokinetic properties (in words) [1]: excellent pharmacokinetic properties
11 | O=C1C=C(OCc2ccc(F)cc2)[C@H](Cc2ncccc2F)N1 [Compound T-36] | 2470 | 1420 | 25.2 | excellent activation effects on LTP | 
12 | O=C1C=C(OCc2ccc(F)cc2)[C@H](Cc2ccccn2)N1 [Compound T-01] | 3500 | 1020 | 79.8 |  | electrical signal conduction in brain slices (in words) ([2]; perfusion administration, hippocampal slices): significantly enhanced electrical signal conduction in brain slices; activation of LTP compared with the control compound (in words) ([2]; versus Compound 50561): higher activation of LTP; Total drug exposure (AUC) in brain tissue ([3]; brain tissue): 1198 ng·h/mL; Total drug exposure (AUC) in brain tissue ([3]; plasma): 1929 ng·h/mL; Kp [3]: 0.621
13 | C[C@H](c1ncccc1F)[C@@H]1NC(=O)C=C1OCc1ccc(F)cc1 [Compound T-75] |  |  |  | excellent activation effects on LTP | 
14 | C[C@@H](OC1=CC(=O)N[C@H]1[C@@H](C)c1ccccn1)c1ccc(F)cc1 [Compound T-80] |  |  |  | excellent activation effects on LTP | 
15 | C[C@@H](OC1=CC(=O)N[C@H]1[C@@H](C)c1ncccc1F)c1ccc(F)cc1 [Compound T-100] |  |  |  | excellent activation effects on LTP | 
16 | C[C@@H](OC1=CC(=O)N[C@H]1Cc1ncccc1F)c1ccc(F)cc1 [Compound T-54] |  |  |  | excellent activation effects on LTP | 
